Data as given in US6737383B1, “Herbicidal oxadiazolidines” (priority 1999, dated 2004).

Columns and labels:
[1] = system: bedstraw; test: Test B pre/postemergence bedstraw; format: in vivo, Galium aparine
Outline: (§1)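 Response is a visual 0-to-10 score relative to untreated plants, where 0 means no effect and 10 means complete control, taken twelve to sixteen days after application. Treatments went onto soil at planting and onto foliage of 1- to 4-leaf plants, using a surfactant-containing non-phytotoxic solvent.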

[2] = system: blackgrass; test: Test B pre/postemergence blackgrass; format: in vivo, Alopecurus myosuroides
Outline: as §1

[3] = system: surinam grass; test: Test B pre/postemergence surinam grass; format: in vivo, Brachiaria decumbens
Outline: as §1

[4] = system: cocklebur; test: Test B pre/postemergence cocklebur; format: in vivo, Xanthium strumarium
Outline: as §1

[5] = system: corn; test: Test B pre/postemergence corn; format: in vivo, Zea mays
Outline: as §1

[6] = system: morningglory; test: Test B pre/postemergence morningglory; format: in vivo, Ipomoea hederacea
Outline: as §1

[7] = system: pigweed; test: Test B pre/postemergence pigweed; format: in vivo, Amaranthus retroflexus
Outline: as §1

[8] = system: rape; test: Test B pre/postemergence rape; format: in vivo, Brassica napus
Outline: as §1

[9] = system: soybean; test: Test B pre/postemergence soybean; format: in vivo, Glycine max
Outline: as §1

[10] = system: sugar beet; test: Test B pre/postemergence sugar beet; format: in vivo, Beta vulgaris; settings: for Plant response rating, Sugarbeets: Rate 250 g/ha
Outline: as §1

[11] = system: velvetleaf; test: Test B pre/postemergence velvetleaf; format: in vivo, Abutilon theophrasti; settings: for Plant response rating, Velvetleaf: Rate 250 g/ha
Outline: as §1

[12] = system: wild oat; test: Test B pre/postemergence wild oat; format: in vivo, Avena fatua; settings: for Plant response rating, Wild oats: Rate 250 g/ha
Outline: as §1

[13] = system: purple nutsedge; test: Test B pre/postemergence purple nutsedge; format: in vivo, Cyperus rotundus
Outline: as §1

[14] = system: rice; test: Test B flood test rice; format: in vivo, Oryza sativa
Outline: (§2)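 Read-out is a visual response score from 0 (no effect) to 10 (complete control), assigned by comparison with untreated controls. Treatment was applied at the 2-leaf stage, and plants stayed in the greenhouse for twelve to sixteen days before scoring.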

[15] = system: smallflower flatsedge; test: Test B flood test smallflower flatsedge; format: in vivo, Cyperus difformis
Outline: as §2

[16] = system: bamyardgrass; test: Test B flood test barnyardgrass; format: in vivo, Echinochloa crus-galli
Outline: as §2

[17] = Postemergence, Rate 250 g/ha, scale 0 to 10, 0 no effect, 10 complete control
[18] = Preemergence, Rate 62 g/ha, scale 0 to 10 (0 no effect, 10 complete control)
[19] = Preemergence, Rate 125 g/ha, scale 0 to 10 (0 no effect, 10 complete control)
[20] = Preemergence, Rate 250 g/ha, scale of 0 to 10 where 0 is no effect and 10 is complete control
[21] = Preemergence, Rate 500 g/ha, scale 0 to 10 (0 no effect, 10 complete control)
[22] = Postemergence, Rate 125 g/ha, scale of 0 to 10 where 0 is no effect and 10 is complete control
[23] = Rate 62 g/ha, Postemergence, scale of 0 to 10 where 0 is no effect and 10 is complete control
[24] = Rate 500 g/ha, Postemergence, scale 0 to 10, 0 no effect, 10 complete control
[25] = Rate 250 g/ha, Postemergence, scale 0 to 10, 0 is no effect, 10 is complete control
[26] = Preemergence, Rate 125 g/ha, 0 is no effect, 10 is complete control
[27] = Preemergence, scale of 0 to 10 where 0 is no effect and 10 is complete control
[28] = Postemergence, scale 0 to 10, 0 is no effect, 10 is complete control
[29] = Rate 250 g/ha, headed Pre-emergence (flood test species), scale 0 to 10 (0 no effect, 10 complete control)
[30] = Rate 500 g/ha, headed Pre-emergence (flood test species), scale 0 to 10 (0 no effect, 10 complete control)
[31] = Rate 1000 g/ha, Pre-emergence (as headed), scale 0 to 10
[32] = Rate 2000 g/ha, Pre-emergence (as headed), scale 0 to 10

CC(C)N(C(=O)n1oc(=O)n(Cc2cccs2)c1=O)c1ccccc1 [Compound 103]
1: Blackgrass plant response rating [2, 22] | B. signalgrass plant response rating [3, 18] | Rape plant response rating [8, 17] | Sugarbeets plant response rating [10, 23] | Plant response rating, Velvetleaf [11, 28]
3: Plant response rating, Blackgrass [2, 20] | Rape plant response rating [8, 24] | Sugarbeets plant response rating [10, 24] | Plant response rating, Velvetleaf [11, 27] | Velvetleaf plant response rating [11, 21] | Plant response rating, Wild oats [12, 27]
8: Morningglory plant response rating [6, 23]
7: Plant response rating, B. signalgrass [3, 20] | B. signalgrass plant response rating [3, 21] | Redroot pigweed plant response rating [7, 21]
0: Bedstraw plant response rating [1, 17] | Bedstraw plant response rating [1, 18] | Plant response rating, Bedstraw [1, 19] | Plant response rating, Bedstraw [1, 20] | Bedstraw plant response rating [1, 21] | Blackgrass plant response rating [2, 18] | Plant response rating, Blackgrass [2, 19] | Blackgrass plant response rating [2, 23] | B. signalgrass plant response rating ([3]; Postemergence, Rate 62 g/ha, scale 0 to 10, 0 is no effect, 10 is complete control) | B. signalgrass plant response rating [3, 17] | B. signalgrass plant response rating ([3]; Rate 125 g/ha, Postemergence, scale 0 to 10, 0 no effect, 10 complete control) | Cocklebur plant response rating [4, 22] | Cocklebur plant response rating [4, 17] | Cocklebur plant response rating [4, 18] | Plant response rating, Cocklebur [4, 19] | Cocklebur plant response rating [4, 21] | Cocklebur plant response rating [4, 23] | Cocklebur plant response rating [4, 24] | Corn plant response rating [5, 22] | Corn plant response rating [5, 17] | Corn plant response rating [5, 18] | Plant response rating, Corn [5, 19] | Plant response rating, Corn [5, 20] | Corn plant response rating [5, 21] | Corn plant response rating [5, 23] | Morningglory plant response rating [6, 18] | Plant response rating, Morningglory [6, 19] | Plant response rating, Morningglory [6, 20] | Morningglory plant response rating [6, 21] | Redroot pigweed plant response rating [7, 22] | Redroot pigweed plant response rating [7, 18] | Plant response rating, Redroot pigweed [7, 19] | Redroot pigweed plant response rating [7, 23] | Rape plant response rating [8, 22] | Rape plant response rating [8, 18] | Plant response rating, Rape [8, 19] | Plant response rating, Rape [8, 20] | Rape plant response rating [8, 21] | Rape plant response rating [8, 23] | Soybean plant response rating [9, 18] | Plant response rating, Soybean [9, 19] | Plant response rating, Soybean [9, 20] | Soybean plant response rating [9, 21] | Sugarbeets plant response rating [10, 18] | Sugarbeets plant response rating (0 to 10 scale) [10, 26] | Plant response rating, Sugarbeets [10, 27] | Velvetleaf plant response rating [11, 22] | Velvetleaf plant response rating [11, 18] | Velvetleaf plant response rating (0 to 10 scale) [11, 26] | Velvetleaf plant response rating [11, 23] | Wild oats plant response rating [12, 22] | Wild oats plant response rating [12, 18] | Wild oats plant response rating (0 to 10 scale) [12, 26] | Wild oats plant response rating [12, 23] | Plant response rating, Wild oats [12, 28] | Wild oats plant response rating [12, 24] | Nutsedge plant response rating [13, 22] | Nutsedge plant response rating [13, 17] | Nutsedge plant response rating [13, 18] | Plant response rating, Nutsedge [13, 19] | Plant response rating, Nutsedge [13, 20] | Nutsedge plant response rating [13, 21] | Nutsedge plant response rating [13, 23] | Nutsedge plant response rating [13, 24] | Rice plant response rating [14, 29] | Plant response rating, Rice [14, 30] | Rice plant response rating [14, 31] | Rice plant response rating [14, 32] | S. Flatsedge plant response rating ([15]; Pre-emergence, Rate 1000 g/ha, scale 0 to 10 (0 no effect, 10 complete control)) | S. Flatsedge plant response rating [15, 29] | Plant response rating, S. Flatsedge [15, 30] | S. Flatsedge plant response rating [15, 32] | Barnyardgrass plant response rating [16, 29] | Plant response rating, Barnyardgrass [16, 30] | Barnyardgrass plant response rating [16, 31] | Barnyardgrass plant response rating ([16]; Rate 2000 g/ha, Pre-emergence (as headed), scale 0 to 10, 0 no effect, 10 complete control)
10: Morningglory plant response rating [6, 22] | Morningglory plant response rating [6, 17] | Morningglory plant response rating [6, 24]
5: Blackgrass plant response rating [2, 21] | Plant response rating, B. signalgrass [3, 19]
4: Blackgrass plant response rating [2, 17] | Blackgrass plant response rating [2, 24] | Redroot pigweed plant response rating [7, 24] | Soybean plant response rating [9, 22] | Soybean plant response rating [9, 23] | Plant response rating, Soybean [9, 25] | Sugarbeets plant response rating [10, 21] | Velvetleaf plant response rating [11, 24]
2: B. signalgrass plant response rating ([3]; Rate 500 g/ha, Postemergence, scale of 0 to 10 where 0 is no effect and 10 is complete control) | Corn plant response rating [5, 24] | Plant response rating, Redroot pigweed [7, 25] | Sugarbeets plant response rating [10, 22] | Plant response rating, Sugarbeets [10, 28]
6: Plant response rating, Redroot pigweed [7, 20] | Soybean plant response rating [9, 24] | Wild oats plant response rating [12, 21]
